Assay results reported in US5840684A, “Glycopeptide antibiotic derivatives” (Eli Lilly and Company, priority 1995, dated 1998).
≈ marks a conversion by molar mass, not a printed value.

Columns and labels:
[1] = tested on: vancomycin-resistant enterococci; experiment: broth micro-dilution, mean geometric MIC; assay type: cell-based, Enterococcus faecium and Enterococcus faecalis; conditions: enterococci, 24-hour incubation
[2] = tested on: Streptococcus pneumoniae P1; experiment: broth micro-dilution MIC; assay type: cell-based
Experimental: (§1) The formula I compounds have in vitro and in vivo activity against Gram-positive pathogenic bacteria. The MIC's were determined using a standard broth micro-dilution assay.

[3] = tested on: Staphylococcus epidermidis 270; experiment: broth micro-dilution MIC; assay type: cell-based
Experimental: as §1

Entercoccus faecium 180 = experiment: broth micro-dilution MIC; assay type: cell-based; conditions: Entercoccus faecium 180
Experimental: as §1

Entercoccus faecium 2041 = experiment: broth micro-dilution MIC; assay type: cell-based; conditions: Entercoccus faecium 2041
Experimental: as §1

[4] = tested on: Staphylococcus haemolyticus 415; experiment: broth micro-dilution MIC; assay type: cell-based
Experimental: as §1

[5] = tested on: Haemophilus influenzae RD; experiment: broth micro-dilution MIC; assay type: cell-based; conditions: Haemophilus influenzae RD
Experimental: as §1

[6] = tested on: Enterococcus gallinarum 245; experiment: broth micro-dilution MIC; assay type: cell-based; conditions: Enterococcus gallinarum 245
Experimental: as §1

[7] = tested on: Staphylococcus haemolyticus 105; experiment: broth micro-dilution MIC; assay type: cell-based
Experimental: as §1

[8] = tested on: vancomycin-susceptible enterococci; experiment: broth micro-dilution, mean geometric MIC; assay type: cell-based, Enterococcus faecium and Enterococcus faecalis; conditions: enterococci, 24-hour incubation
[9] = tested on: Staphylococcus aureus SA1199B; assay type: cell-based
Experimental: (§2) The MIC's were determined using a standard broth micro-dilution assay.

[10] = tested on: Staphylococcus aureus S13E; assay type: cell-based
Experimental: as §2

[11] = tested on: Staphylococcus aureus X778; experiment: broth micro-dilution MIC; assay type: cell-based
Experimental: as §2

[12] = tested on: Staphylococcus aureus 489; experiment: broth micro-dilution MIC; assay type: cell-based
Experimental: as §2

[13] = tested on: Entercoccus faecium 180-1; experiment: broth micro-dilution MIC; assay type: cell-based
Experimental: as §2

Entercoccus faecium 276 = experiment: broth micro-dilution MIC; assay type: cell-based
Experimental: as §2

[14] = tested on: Streptococcus pyogenes C203; experiment: broth micro-dilution MIC; assay type: cell-based
Experimental: as §2

[15] = tested on: Staphylococcus aureus SA1199A; experiment: broth micro-dilution MIC; assay type: cell-based
Experimental: as §2

[16] = tested on: Staphylococcus aureus SA1199; experiment: broth micro-dilution MIC; assay type: cell-based
Experimental: as §2

[17] = tested on: Staphylococcus aureus 491; experiment: broth micro-dilution MIC; assay type: cell-based
Experimental: as §2

[18] = tested on: Staphylococcus aureus X400; experiment: broth micro-dilution MIC; assay type: cell-based
Experimental: as §2

[19] = tested on: Staphylococcus aureus 447; experiment: broth micro-dilution MIC; assay type: cell-based
Experimental: as §2

[20] = tested on: Staphylococcus aureus 446; experiment: broth micro-dilution MIC; assay type: cell-based
Experimental: as §2

Compound	mean geometric MIC, Vancomycin Resistant Strains [1] [µg/mL]	MIC [2] [µg/mL]	MIC [3] [µg/mL]	MIC (Entercoccus faecium 180) [µg/mL]	MIC (Entercoccus faecium 2041) [µg/mL]	MIC [4] [µg/mL]	MIC [5] [µg/mL]	MIC [6] [µg/mL]	MIC [7] [µg/mL]	mean geometric MIC, Vancomycin Sensitive Strains [8] [µg/mL]	MIC [9] [µg/mL]	MIC [10] [µg/mL]	MIC [11] [µg/mL]	MIC [12] [µg/mL]	MIC [13] [µg/mL]	MIC (Entercoccus faecium 276) [µg/mL]	MIC [16] [µg/mL]	MIC [17] [µg/mL]	MIC [18] [µg/mL]	MIC [20] [µg/mL]	further results
CNC(CC(C)C)C(=O)NC1C(=O)NC(CC(N)=O)C(=O)NC2C(=O)NC3C(=O)NC(C(=O)NC(C(=O)O)c4cc(O)cc(O)c4-c4cc3ccc4O)C(OC3CC(C)(N)C(O)C(C)O3)c3ccc(c(Cl)c3)Oc3cc2cc(c3OC2OC(CO)C(O)C(O)C2OC2CC(C)(NCCCCCCCCBr)C(O)C(C)O2)Oc2ccc(cc2Cl)C1O (stereo not shown) [Compound 198]	3.4	≤ 0.06	0.25 (≈ 0.14 µM)	≤ 0.06	≤ 0.06	1 (≈ 0.561 µM)	32 (≈ 17.9 µM)	1 (≈ 0.561 µM)	0.5 (≈ 0.28 µM)	0.062	0.5 (≈ 0.28 µM)	0.125 (≈ 0.0701 µM)	0.125 (≈ 0.0701 µM)	0.125 (≈ 0.0701 µM)	≤ 0.06	0.25 (≈ 0.14 µM)	0.5 (≈ 0.28 µM)	≤ 0.06	0.5 (≈ 0.28 µM)	1 (≈ 0.561 µM)	MIC [14]: ≤ 0.06 µg/mL; MIC [15]: ≤ 0.06 µg/mL; MIC [19]: 0.125 µg/mL (≈ 0.0701 µM)
CC#CCCCCCCCCCCNC1(C)CC(OC2C(Oc3c4cc5cc3Oc3ccc(cc3Cl)C(OC3CC(C)(N)C(O)C(C)O3)C3NC(=O)C(NC(=O)C5NC(=O)C(CC(N)=O)NC(=O)C(NC(=O)C(CC(C)C)NC)C(O)c5ccc(c(Cl)c5)O4)c4ccc(O)c(c4)-c4c(O)cc(O)cc4C(C(=O)O)NC3=O)OC(CO)C(O)C2O)OC(C)C1O (stereo not shown) [Compound 199]	1.4	≤ 0.06	0.5 (≈ 0.282 µM)	0.5 (≈ 0.282 µM)	≤ 0.06	4 (≈ 2.26 µM)	32 (≈ 18.1 µM)	4 (≈ 2.26 µM)	2 (≈ 1.13 µM)	0.036	1 (≈ 0.565 µM)	0.5 (≈ 0.282 µM)	1 (≈ 0.565 µM)	2 (≈ 1.13 µM)	≤ 0.06	1 (≈ 0.565 µM)	1 (≈ 0.565 µM)	0.5 (≈ 0.282 µM)	2 (≈ 1.13 µM)	0.5 (≈ 0.282 µM)	MIC [14]: ≤ 0.06 µg/mL; MIC [19]: 1 µg/mL (≈ 0.565 µM)
CNC(CC(C)C)C(=O)NC1C(=O)NC(CC(N)=O)C(=O)NC2C(=O)NC3C(=O)NC(C(=O)NC(C(=O)O)c4cc(O)cc(O)c4-c4cc3ccc4O)C(OC3CC(C)(N)C(O)C(C)O3)c3ccc(c(Cl)c3)Oc3cc2cc(c3OC2OC(CO)C(O)C(O)C2OC2CC(C)(NCc3ccc(-c4ccccc4[N+](=O)[O-])c([N+](=O)[O-])c3)C(O)C(C)O2)Oc2ccc(cc2Cl)C1O (stereo not shown) [Compound 213]	1.0	≤ 0.06	0.5 (≈ 0.27 µM)	0.125 (≈ 0.0676 µM)	≤ 0.06	2 (≈ 1.08 µM)	32 (≈ 17.3 µM)	2 (≈ 1.08 µM)	0.5 (≈ 0.27 µM)	0.55	≤ 0.06	≤ 0.06	≤ 0.06	≤ 0.06	≤ 0.06	≤ 0.06	≤ 0.06	≤ 0.06	≤ 0.06	≤ 0.06	MIC [15]: ≤ 0.06 µg/mL
CNC(CC(C)C)C(=O)NC1C(=O)NC(CC(N)=O)C(=O)NC2C(=O)NC3C(=O)NC(C(=O)NC(C(=O)O)c4cc(O)cc(O)c4-c4cc3ccc4O)C(OC3CC(C)(N)C(O)C(C)O3)c3ccc(c(Cl)c3)Oc3cc2cc(c3OC2OC(CO)C(O)C(O)C2OC2CC(C)(NCc3ccc(Oc4ccc(Cl)c(Cl)c4)cc3)C(O)C(C)O2)Oc2ccc(cc2Cl)C1O (stereo not shown) [Compound 81]	1.0	≤ 0.06	1 (≈ 0.542 µM)	≤ 0.06	≤ 0.06	4 (≈ 2.17 µM)	16 (≈ 8.68 µM)	0.25 (≈ 0.136 µM)	1 (≈ 0.542 µM)	0.042	1 (≈ 0.542 µM)	0.5 (≈ 0.271 µM)	1 (≈ 0.542 µM)	2 (≈ 1.08 µM)	–	≤ 0.06	2 (≈ 1.08 µM)	1 (≈ 0.542 µM)	1 (≈ 0.542 µM)	2 (≈ 1.08 µM)	MIC [14]: ≤ 0.06 µg/mL; MIC [15]: 0.5 µg/mL (≈ 0.271 µM); MIC [19]: 2 µg/mL (≈ 1.08 µM)
CNC(CC(C)C)C(=O)NC1C(=O)NC(CC(N)=O)C(=O)NC2C(=O)NC3C(=O)NC(C(=O)NC(C(=O)O)c4cc(O)cc(O)c4-c4cc3ccc4O)C(OC3CC(C)(N)C(O)C(C)O3)c3ccc(c(Cl)c3)Oc3cc2cc(c3OC2OC(CO)C(O)C(O)C2OC2CC(C)(NCCCCCCCCc3ccccc3)C(O)C(C)O2)Oc2ccc(cc2Cl)C1O (stereo not shown) [Compound 176]	1.2	–	0.5 (≈ 0.281 µM)	2 (≈ 1.12 µM)	0.125 (≈ 0.0702 µM)	2 (≈ 1.12 µM)	8 (≈ 4.49 µM)	2 (≈ 1.12 µM)	4 (≈ 2.25 µM)	0.13	1 (≈ 0.562 µM)	2 (≈ 1.12 µM)	1 (≈ 0.562 µM)	0.5 (≈ 0.281 µM)	≤ 0.06	2 (≈ 1.12 µM)	2 (≈ 1.12 µM)	2 (≈ 1.12 µM)	1 (≈ 0.562 µM)	2 (≈ 1.12 µM)	MIC [19]: 1 µg/mL (≈ 0.562 µM)
C=CCCCCCCCCNC1(C)CC(OC2C(Oc3c4cc5cc3Oc3ccc(cc3Cl)C(OC3CC(C)(N)C(O)C(C)O3)C3NC(=O)C(NC(=O)C5NC(=O)C(CC(N)=O)NC(=O)C(NC(=O)C(CC(C)C)NC)C(O)c5ccc(c(Cl)c5)O4)c4ccc(O)c(c4)-c4c(O)cc(O)cc4C(C(=O)O)NC3=O)OC(CO)C(O)C2O)OC(C)C1O (stereo not shown) [Compound 214]	0.71	≤ 0.06	≤ 0.06	0.25 (≈ 0.144 µM)	0.125 (≈ 0.0722 µM)	2 (≈ 1.16 µM)	32 (≈ 18.5 µM)	2 (≈ 1.16 µM)	1 (≈ 0.578 µM)	0.024	1 (≈ 0.578 µM)	1 (≈ 0.578 µM)	1 (≈ 0.578 µM)	1 (≈ 0.578 µM)	≤ 0.06	0.25 (≈ 0.144 µM)	0.5 (≈ 0.289 µM)	1 (≈ 0.578 µM)	0.5 (≈ 0.289 µM)	1 (≈ 0.578 µM)	MIC [15]: 0.5 µg/mL (≈ 0.289 µM); MIC [19]: 2 µg/mL (≈ 1.16 µM)
CNC(CC(C)C)C(=O)NC1C(=O)NC(CC(N)=O)C(=O)NC2C(=O)NC3C(=O)NC(C(=O)NC(C(=O)O)c4cc(O)cc(O)c4-c4cc3ccc4O)C(OC3CC(C)(N)C(O)C(C)O3)c3ccc(c(Cl)c3)Oc3cc2cc(c3OC2OC(CO)C(O)C(O)C2OC2CC(C)(NCCCCCCCCOc3ccc(-c4ccccc4)cc3)C(O)C(C)O2)Oc2ccc(cc2Cl)C1O (stereo not shown) [Compound 201]	1.2	≤ 0.06	4 (≈ 2.14 µM)	0.5 (≈ 0.267 µM)	1 (≈ 0.534 µM)	8 (≈ 4.27 µM)	32 (≈ 17.1 µM)	8 (≈ 4.27 µM)	8 (≈ 4.27 µM)	0.44	–	8 (≈ 4.27 µM)	4 (≈ 2.14 µM)	8 (≈ 4.27 µM)	0.5 (≈ 0.267 µM)	4 (≈ 2.14 µM)	8 (≈ 4.27 µM)	4 (≈ 2.14 µM)	4 (≈ 2.14 µM)	4 (≈ 2.14 µM)	MIC [14]: ≤ 0.06 µg/mL; MIC [15]: 2 µg/mL (≈ 1.07 µM)
